US11395479B2, “Method to reduce microbial bloom in poultry hatchery” (Novozymes A/S, priority 2016, dated 2022)

Columns and labels:
Assay type in all cases: in vivo, commercial broiler chicks
Details in all cases: gut of DOH chicks, n = 12, ± Std Err
thermotolerant spores = assay: Gut counts of day of hatch chicks: thermotolerant spores on TSA
Method: Guts from chicks treated with either the bacterial formulation of example 3 or formaldehyde were tested for thermotolerant spores, presumptive Lactic Acid Bacteria (LAB) and Gram-negative bacteria.
Directly prior to chick removal from the hatchers twelve birds per treatment group were removed from the hatcher. Birds were transported (˜1 h) to an appropriate research facility and humanely euthanized by CO2 asphyxiation. Gut packs containing duodenum, ileum, and ceca were aseptically removed and separately homogenized. Gut samples were diluted in sterile saline at a 1:4 wt/vol rate. Ten-fold dilutions were made by placing 200 μl of the sample (N) into the first row of a sterile 96-well plate and sequentially diluting by transferring 20 μl to 180 μl sterile saline to the 10^−7 dilution. The dilutions (N to 10^−7) were plated by 10 μl drop onto both MRS agar and MacConkey's agar. For Trypticase soy agar (TSA) plating, the gut samples were Pasteurized at 80° C. for 10 min before transferring 200 μl into a 96 well plate. The rest of the dilutions and plating methods were the same as the MRS and MacConkey's agar. Agar plates were counted after 24 h of incubation at 37° C.

[1] = test system: presumptive Lactic Acid Bacteria (LAB); assay: Gut counts of day of hatch chicks: presumptive LAB on MRS agar
Gram-negative bacteria = assay: Gut counts of day of hatch chicks: Gram-negative bacteria on MacConkey's agar

With `C=O` [Formaldehyde] the “thermotolerant spore counts, TSA, Exp 1” value (thermotolerant spores; Exp 1, samples not pasteurized) was 8.95 ± 0.2 Log10 CFU/g, the “thermotolerant spore counts, TSA, Exp 2” value (thermotolerant spores; Exp 2, pasteurized) was 1.34 ± 0.48 Log10 CFU/g and the “thermotolerant spore counts, TSA, Exp 3” value (thermotolerant spores; Exp 3, pasteurized) was 0.69 ± 0.36 Log10 CFU/g. For the same compound, the “thermotolerant spore counts, TSA, Exp 4” value (thermotolerant spores; Exp 4, pasteurized) was 0.44 ± 0.3 Log10 CFU/g, the “thermotolerant spore counts, TSA, Exp 5” value (thermotolerant spores; Exp 5, pasteurized) was 0 ± 0 Log10 CFU/g and the “presumptive Lactic Acid bacteria counts, MRS agar, Exp 1” value ([1]; Exp 1) was 7.79 ± 0.17 Log10 CFU/g. The “presumptive Lactic Acid bacteria counts, MRS agar, Exp 2” value ([1]; Exp 2) was 7.26 ± 0.34 Log10 CFU/g, the “presumptive Lactic Acid bacteria counts, MRS agar, Exp 3” value ([1]; Exp 3) was 6.26 ± 0.83 Log10 CFU/g and the “presumptive Lactic Acid bacteria counts, MRS agar, Exp 4” value ([1]; Exp 4) was 5.1 ± 0.99 Log10 CFU/g. For the same compound, the “presumptive Lactic Acid bacteria counts, MRS agar, Exp 5” value ([1]; Exp 5) was 2.85 ± 0.96 Log10 CFU/g, the “presumptive Gram-negative bacteria counts, MacConkey's agar, Exp 1” value (Gram-negative bacteria; Exp 1) was 8.39 ± 0.19 Log10 CFU/g and the “presumptive Gram-negative bacteria counts, MacConkey's agar, Exp 2” value (Gram-negative bacteria; Exp 2) was 6.56 ± 0.83 Log10 CFU/g. The “presumptive Gram-negative bacteria counts, MacConkey's agar, Exp 3” value (Gram-negative bacteria; Exp 3) was 3.9 ± 0.93 Log10 CFU/g, the “presumptive Gram-negative bacteria counts, MacConkey's agar, Exp 4” value (Gram-negative bacteria; Exp 4) was 4.95 ± 0.99 Log10 CFU/g and the “presumptive Gram-negative bacteria counts, MacConkey's agar, Exp 5” value (Gram-negative bacteria; Exp 5) was 2.84 ± 0.92 Log10 CFU/g.
